Measurements from publication PMC2996141 (Journal of chemical information and modeling, 2010).
Entries after “also recorded” stand apart in the source; their conditions may differ. Where two headings read alike, the source gives them in different places.

How the values were obtained:
[1] = test system: cell growth; settings: cited from earlier work
[2] = test system: microtubules (taxoid site); assay: Inhibition of [^3H]paclitaxel binding to microtubules; parameters: species or system Bovine; settings: for % inhibition ± SD, radiolabeled ligand [^3H]paclitaxel: 2.0 µM tubulin as microtubules, radiolabeled ligand 4.0 µM, inhibitor 20 µM
[3] = target: microtubules (laulimalide/peloruside A site) (Bos taurus, UniProt Q6B856); assay: Inhibition of [^3H]peloruside A binding to microtubules; parameters: species or system Bovine; settings: for inhibition at 20 µM: read-out: % inhibition ± SD, radiolabeled ligand [^3H]peloruside A; for % inhibition ± SD, radiolabeled ligand [^3H]peloruside A: 2.0 µM tubulin as microtubules, radiolabeled ligand 4.0 µM, inhibitor 20 µM; for type of inhibition of [^3H]peloruside A binding: Hanes analysis; for Ki: read-out: apparent Ki, inhibition of [^3H]peloruside A binding, Dixon analysis, competitive
microtubules (laulimalide/peloruside A site), sequence (Q6B856 whole entry): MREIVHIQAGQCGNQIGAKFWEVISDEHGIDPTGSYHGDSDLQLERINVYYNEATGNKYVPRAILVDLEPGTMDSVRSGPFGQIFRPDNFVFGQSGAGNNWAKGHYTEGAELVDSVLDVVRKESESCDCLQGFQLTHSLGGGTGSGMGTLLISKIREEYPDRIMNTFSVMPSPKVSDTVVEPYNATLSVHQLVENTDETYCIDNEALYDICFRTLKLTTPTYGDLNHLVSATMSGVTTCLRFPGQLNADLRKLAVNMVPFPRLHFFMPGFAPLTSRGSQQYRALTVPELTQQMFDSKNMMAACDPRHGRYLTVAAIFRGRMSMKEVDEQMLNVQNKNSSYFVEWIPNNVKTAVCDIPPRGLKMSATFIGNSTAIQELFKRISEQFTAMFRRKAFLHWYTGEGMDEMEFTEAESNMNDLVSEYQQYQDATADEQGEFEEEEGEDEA
microtubules (laulimalide/peloruside A site), sequence (P81947 whole entry partner): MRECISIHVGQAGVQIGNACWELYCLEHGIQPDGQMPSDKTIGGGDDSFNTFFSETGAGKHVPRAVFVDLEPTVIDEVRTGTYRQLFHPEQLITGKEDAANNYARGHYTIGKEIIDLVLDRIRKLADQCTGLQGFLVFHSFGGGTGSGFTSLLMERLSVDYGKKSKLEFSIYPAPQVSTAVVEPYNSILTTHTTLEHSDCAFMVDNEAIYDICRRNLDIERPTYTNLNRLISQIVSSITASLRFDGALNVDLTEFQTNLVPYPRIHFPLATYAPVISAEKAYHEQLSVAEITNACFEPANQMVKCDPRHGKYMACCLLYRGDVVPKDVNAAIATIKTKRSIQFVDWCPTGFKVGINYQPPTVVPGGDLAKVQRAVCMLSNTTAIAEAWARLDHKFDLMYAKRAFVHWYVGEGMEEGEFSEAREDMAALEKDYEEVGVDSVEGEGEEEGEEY

[4] = target: T1, tubulin polymer (microtubules) (Bos taurus, UniProt Q6B856); assay: Binding of [^3H]paclitaxel to preformed tubulin polymer, Scatchard analysis; parameters: species or system Bovine
T1 sequence (Q6B856 whole entry): as the sequence (Q6B856 whole entry) above
T1 sequence (P81947 whole entry partner): as the sequence (P81947 whole entry partner) above

[5] = target: T1, tubulin polymer (microtubules); assay: Binding of [^3H]peloruside A to preformed tubulin polymer, Scatchard analysis; parameters: species or system Bovine

Row | Compound | ability to inhibit [^3H]paclitaxel binding [2] | % inhibition ± SD, radiolabeled ligand [^3H]paclitaxel [2] [%] | ability to inhibit [^3H]peloruside A binding (words) [3] | inhibition at 20 µM [3] [%] | also measured
1 | C=C1C[C@H](C)C[C@@H]2CC=C[C@@H](C/C=C\C(=O)O[C@@H](/C=C/[C@@H]3CC(C)=CCO3)[C@@H](O)C[C@@H]3O[C@H]3[C@@H](O)C1)O2 [compound 13, neolaulimalide] |  |  |  |  | activity in cells and with tubulin relative to laulimalide ([1]; ref Gollner et al. 41): equivalent to that of laulimalide
2 | C=C/C=C\[C@H](C)[C@H](OC(N)=O)[C@@H](C)[C@H](O)[C@@H](C)C/C(C)=C\[C@H](C)[C@@H](O)[C@@H](C)/C=C\[C@@H](O)C[C@@H]1OC(=O)[C@H](C)[C@@H](O)[C@H]1C [discodermolide] | strong inhibitors | 87 ± 2 | essentially no ability to inhibit; also recorded: little activity | 5 ± 2 | 
3 | C/C(=C\c1csc(C)n1)[C@@H]1C[C@@H]2O[C@]2(C)CCC[C@H](C)[C@H](O)[C@@H](C)C(=O)C(C)(C)[C@@H](O)CC(=O)O1 [epothilone B] | strong inhibitors | 79 ± 5 | essentially no ability to inhibit; also recorded: little activity | 2.2 ± 5 | 
4 | C=C1C[C@H](C)C[C@@H]2CC=C[C@@H](C/C=C\C(=O)O[C@H]([C@@H](O)/C=C/[C@@H]3CC(C)=CCO3)C[C@@H]3O[C@H]3[C@@H](O)C1)O2 [laulimalide] | essentially inactive | 1.7 ± 5 | inhibitory; also recorded: potent competitive inhibitor |  | % inhibition ± SD, radiolabeled ligand [^3H]peloruside A [3]: 90 ± 0.1%; type of inhibition of [^3H]peloruside A binding [3]: competitive inhibitor; Ki [3]: 250 nM
5 | CC(=O)O[C@H]1C(=O)[C@@]2(C)[C@H]([C@H](OC(=O)c3ccccc3)[C@]3(O)C[C@H](OC(=O)[C@H](O)[C@@H](NC(=O)c4ccccc4)c4ccccc4)C(C)=C1C3(C)C)[C@]1(OC(C)=O)CO[C@@H]1C[C@@H]2O [paclitaxel] |  |  | little activity | 6.8 ± 0.5 | Kd [4]: 240 nM; ability to inhibit [^3H]peloruside A binding (words) ([3]; listed as Paclitaxel): essentially no ability to inhibit
6 | CC[C@@H](/C=C(/C)[C@H]1C[C@H](OC)C[C@@H](O)C(C)(C)[C@]2(O)O[C@H](C[C@H](OC)[C@@H](O)C(=O)O1)C[C@H](OC)[C@@H]2O)CO [peloruside A] |  | 5.1 ± 6 |  |  | number of binding sites per tubulin αβ-dimer in microtubules [5]: one binding site
7 | CC[C@H](/C=C(/C)[C@@H]1C[C@@H](OC)C[C@H](O)C(C)(C)[C@@]2(O)O[C@@H](C[C@@H](O)[C@H](O)C(=O)O1)C[C@@H](OC)[C@H]2O)CO [peloruside B] |  |  |  |  | cytotoxicity relative to peloruside A [1]: about three-fold less cytotoxic
8 | (11-R)-peloruside A | essentially inactive | 0 ± 8 | inhibitory |  | % inhibition ± SD, radiolabeled ligand [^3H]peloruside A [3]: 49 ± 1%; type of inhibition of [^3H]peloruside A binding [3]: competitive inhibitors; Ki [3]: 9300 nM
